US9371265B2, “Compositions and methods related to inhibitors of JAK kinase” (EP PHARMA, INC., priority 2012, dated 2016)

How the values were obtained:
PIK3CG = PIK3CG (Homo sapiens, UniProt P48736); assay: Kinase panel: PIK3CG; format: biochemical; settings: 10 μM EP009
Procedure: (§1) Achieving JAK3 selectivity remains a significant challenge in the development of new small molecules for the treatment of cancer and immune-derived diseases. As such, the inventors employed cell-based screening assays of small-molecule libraries based upon the chemical scaffold of the established JAK3 inhibitor NC1153 (Stepkowski et al., J Immunol. (2005), 175(7):4236-4246) EP009 (FIG. 2A) was selected as a lead compound due to improved intrinsic stability (>95% purity in various solvents at 37° C. for 24 hours; FIG. 3) and high-degree of JAK3 selectivity. To test JAK3 versus JAK2 specificity of EP009, the IL-2/JAK3-dependent Kit225, and IL-3/JAK2-dependent BaF/3 cell lines were used. Kit225 and BaF/3 cells growing in the presence of IL-2 or IL-3, respectively, were treated with ascending concentrations of EP009 for 12 hours and cellular JAK3 and JAK2 tyrosine phosphorylation levels detected by Western blot analysis (FIGS. 2B and 2C). Following densitometric analysis, EP009 was determined to dose-dependently reduce IL-2-mediated JAK3 tyrosine phosphorylation with a cellular 50% inhibitory concentration (IC50) between 10 and 20 μM (FIG. 2B). […] To globally evaluate specificity, the inhibitory activity of EP009 was measured against a panel of protein kinases distributed throughout the kinome using the scanEDGE profiling service (KINOMEscan). […]

VEGFR2 = VEGFR2 (Homo sapiens, UniProt P35968); assay: Kinase panel: VEGFR2; format: biochemical; settings: 10 μM EP009
Procedure: as §1

ERK1 = ERK1 (Homo sapiens, UniProt P27361); assay: Kinase panel: ERK1; format: biochemical; settings: 10 μM EP009
Procedure: as §1

ERBB2 = ERBB2 (Homo sapiens, UniProt P04626); assay: Kinase panel: ERBB2; format: biochemical; settings: 10 μM EP009
Procedure: as §1

JNK2 = JNK2 (Homo sapiens, UniProt P45984); assay: Kinase panel: JNK2; format: biochemical; settings: 10 μM EP009
Procedure: as §1

JNK1 = JNK1 (Homo sapiens, UniProt P45983); assay: Kinase panel: JNK1; format: biochemical; settings: 10 μM EP009
Procedure: as §1

IKK-alpha = IKK-alpha (Homo sapiens, UniProt O15111); assay: Kinase panel: IKK-alpha; format: biochemical; settings: 10 μM EP009
Procedure: as §1

JAK3 = JAK3 (Homo sapiens, UniProt P52333); assay: IL-2-mediated JAK3 tyrosine phosphorylation in Kit225 cells (IP/Western blot, densitometry); format: cell-based; set-up: cellular JAK3 and JAK2 tyrosine phosphorylation levels detected by Western blot analysis; endogenous in cells; host or cells: Kit225; settings: 12 hours, densitometric analysis, read-out: cellular IC50, IL-2-mediated JAK3 tyrosine phosphorylation
Procedure: FIGS. 2A-2F. Selective inhibition of JAK3 by EP009 results in loss of JAK3-dependent tumor cell line viability with no detectable off-target effects in key cell types. (A) Chemical structure of EP009 (M.W. 224.34). (B) Kit225 or (C) BaF/3 cells cultured in the presence of IL-2 or IL-3, respectively, were treated with vehicle (PBS; lane a) or increasing amounts of EP009 (0-50 μM; lanes b-h) for 12 hours. Cells were then lysed, clarified, and immunoprecipitated (IP) with anti-JAK3 (α-JAK3) or anti-JAK2 (α-JAK2), and subjected to Western blot (WB) analysis with anti-phosphotyrosine (α-pY). Blots were stripped and reprobed with corresponding antibody to verify equivalent protein loading. […] (E) Kit225 or BaF/3 cells were cultured with increasing amounts of EP009 (0-10 μM) for 72 hours and cell viability measured with the MTS tetrazolium salt assay. Values represent mean absorbance (OD490-OD650 nm) normalized to vehicle (PBS) treated control cells, while error bars represent the standard deviation (n=3). (F) HEK293, HEPG2, or naïve primary human PBMCs were cultured with increasing amounts of EP009 (0-10 μM) for 72 hours and cell viability measured with the MTS tetrazolium salt assay. Values represent mean absorbance (OD490-OD650 nm) normalized to vehicle (PBS) treated control cells, while error bars represent the standard deviation (n=3). […]

CSF1R = CSF1R (Homo sapiens, UniProt P07333); assay: Kinase panel: CSF1R; format: biochemical; settings: 10 μM EP009
Procedure: as §1

Sequence of ERBB2 (P04626 23-1255): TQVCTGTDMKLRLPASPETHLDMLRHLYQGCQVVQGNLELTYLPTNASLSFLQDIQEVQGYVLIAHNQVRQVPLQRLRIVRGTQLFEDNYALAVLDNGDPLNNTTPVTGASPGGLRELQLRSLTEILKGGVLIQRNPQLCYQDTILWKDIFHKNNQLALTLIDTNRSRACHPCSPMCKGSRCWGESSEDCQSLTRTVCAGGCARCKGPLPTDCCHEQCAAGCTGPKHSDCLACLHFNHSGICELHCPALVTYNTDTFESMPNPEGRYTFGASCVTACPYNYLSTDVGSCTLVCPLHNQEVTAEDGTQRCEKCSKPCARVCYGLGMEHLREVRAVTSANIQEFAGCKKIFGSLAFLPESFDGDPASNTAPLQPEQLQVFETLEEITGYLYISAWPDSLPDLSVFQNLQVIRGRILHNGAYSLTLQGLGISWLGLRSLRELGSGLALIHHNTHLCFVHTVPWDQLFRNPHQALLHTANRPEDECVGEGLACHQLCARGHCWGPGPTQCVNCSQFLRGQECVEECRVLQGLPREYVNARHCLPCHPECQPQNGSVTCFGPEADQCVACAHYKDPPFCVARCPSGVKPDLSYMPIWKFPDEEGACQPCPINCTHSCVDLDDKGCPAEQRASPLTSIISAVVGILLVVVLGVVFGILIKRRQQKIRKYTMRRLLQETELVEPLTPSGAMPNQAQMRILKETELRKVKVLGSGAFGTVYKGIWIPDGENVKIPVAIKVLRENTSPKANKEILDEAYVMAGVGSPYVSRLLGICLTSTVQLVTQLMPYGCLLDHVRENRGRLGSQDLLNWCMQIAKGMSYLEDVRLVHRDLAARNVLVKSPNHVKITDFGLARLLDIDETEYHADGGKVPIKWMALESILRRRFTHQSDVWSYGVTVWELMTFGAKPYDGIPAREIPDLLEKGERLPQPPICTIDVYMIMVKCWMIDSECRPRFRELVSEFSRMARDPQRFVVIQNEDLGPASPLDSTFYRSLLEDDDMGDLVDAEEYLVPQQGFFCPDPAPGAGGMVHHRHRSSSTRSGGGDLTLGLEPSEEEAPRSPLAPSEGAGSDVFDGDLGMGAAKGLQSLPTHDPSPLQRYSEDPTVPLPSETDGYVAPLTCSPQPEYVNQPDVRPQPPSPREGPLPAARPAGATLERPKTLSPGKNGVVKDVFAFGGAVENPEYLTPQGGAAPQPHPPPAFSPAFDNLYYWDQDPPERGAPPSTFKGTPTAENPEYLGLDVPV
Sequence of VEGFR2 (P35968 20-1356): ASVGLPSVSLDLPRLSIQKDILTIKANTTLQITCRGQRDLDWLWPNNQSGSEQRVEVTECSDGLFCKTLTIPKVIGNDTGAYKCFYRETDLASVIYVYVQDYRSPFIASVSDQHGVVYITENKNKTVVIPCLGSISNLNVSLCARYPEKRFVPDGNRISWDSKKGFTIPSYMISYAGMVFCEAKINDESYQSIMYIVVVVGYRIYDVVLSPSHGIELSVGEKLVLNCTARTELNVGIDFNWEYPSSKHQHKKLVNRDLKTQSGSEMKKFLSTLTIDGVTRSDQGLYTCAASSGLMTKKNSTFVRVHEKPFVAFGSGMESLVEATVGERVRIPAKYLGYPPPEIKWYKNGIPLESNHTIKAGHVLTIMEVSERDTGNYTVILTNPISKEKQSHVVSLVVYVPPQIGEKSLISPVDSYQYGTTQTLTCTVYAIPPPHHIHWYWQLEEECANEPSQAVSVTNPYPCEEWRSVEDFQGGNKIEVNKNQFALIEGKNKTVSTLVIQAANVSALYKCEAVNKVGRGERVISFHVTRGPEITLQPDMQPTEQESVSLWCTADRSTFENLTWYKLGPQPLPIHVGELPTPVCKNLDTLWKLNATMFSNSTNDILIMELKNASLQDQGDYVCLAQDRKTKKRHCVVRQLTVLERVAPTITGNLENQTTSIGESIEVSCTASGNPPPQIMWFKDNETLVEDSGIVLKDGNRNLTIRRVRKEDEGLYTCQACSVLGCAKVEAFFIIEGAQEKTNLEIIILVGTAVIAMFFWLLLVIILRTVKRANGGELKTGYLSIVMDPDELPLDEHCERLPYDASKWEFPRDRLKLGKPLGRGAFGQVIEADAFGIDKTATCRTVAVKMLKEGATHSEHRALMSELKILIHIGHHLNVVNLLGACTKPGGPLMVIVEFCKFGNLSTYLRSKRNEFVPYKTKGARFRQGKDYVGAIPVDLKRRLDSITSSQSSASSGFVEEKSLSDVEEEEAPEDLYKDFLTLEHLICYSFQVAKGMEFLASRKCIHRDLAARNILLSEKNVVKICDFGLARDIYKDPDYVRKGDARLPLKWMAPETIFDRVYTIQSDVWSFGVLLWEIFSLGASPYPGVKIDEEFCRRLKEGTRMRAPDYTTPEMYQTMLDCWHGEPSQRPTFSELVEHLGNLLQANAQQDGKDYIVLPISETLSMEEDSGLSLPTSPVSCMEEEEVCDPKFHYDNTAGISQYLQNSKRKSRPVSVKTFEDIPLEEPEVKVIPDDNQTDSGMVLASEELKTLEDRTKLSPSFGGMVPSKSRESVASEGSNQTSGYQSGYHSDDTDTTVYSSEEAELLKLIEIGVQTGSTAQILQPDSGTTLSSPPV
Sequence of IKK-alpha (O15111 whole entry): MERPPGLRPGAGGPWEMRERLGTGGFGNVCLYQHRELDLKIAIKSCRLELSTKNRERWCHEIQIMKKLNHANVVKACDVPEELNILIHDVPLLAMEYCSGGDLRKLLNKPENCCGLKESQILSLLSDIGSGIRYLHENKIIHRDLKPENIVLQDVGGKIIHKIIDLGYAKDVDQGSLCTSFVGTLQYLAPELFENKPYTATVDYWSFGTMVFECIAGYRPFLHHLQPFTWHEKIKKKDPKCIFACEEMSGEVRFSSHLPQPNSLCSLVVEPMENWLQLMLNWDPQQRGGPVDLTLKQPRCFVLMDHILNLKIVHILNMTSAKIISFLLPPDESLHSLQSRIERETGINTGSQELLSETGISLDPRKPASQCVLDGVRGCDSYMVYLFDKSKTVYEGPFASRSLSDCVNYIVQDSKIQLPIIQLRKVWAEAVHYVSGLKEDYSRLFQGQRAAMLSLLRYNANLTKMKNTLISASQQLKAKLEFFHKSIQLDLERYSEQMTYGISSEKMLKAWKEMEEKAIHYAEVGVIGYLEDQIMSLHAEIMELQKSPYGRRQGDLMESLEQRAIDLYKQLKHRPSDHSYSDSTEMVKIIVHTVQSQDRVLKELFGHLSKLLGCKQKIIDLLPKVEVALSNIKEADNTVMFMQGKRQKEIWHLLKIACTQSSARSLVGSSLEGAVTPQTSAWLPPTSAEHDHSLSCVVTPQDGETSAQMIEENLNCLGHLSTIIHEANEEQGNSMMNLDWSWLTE
Sequence of PIK3CG (P48736 whole entry): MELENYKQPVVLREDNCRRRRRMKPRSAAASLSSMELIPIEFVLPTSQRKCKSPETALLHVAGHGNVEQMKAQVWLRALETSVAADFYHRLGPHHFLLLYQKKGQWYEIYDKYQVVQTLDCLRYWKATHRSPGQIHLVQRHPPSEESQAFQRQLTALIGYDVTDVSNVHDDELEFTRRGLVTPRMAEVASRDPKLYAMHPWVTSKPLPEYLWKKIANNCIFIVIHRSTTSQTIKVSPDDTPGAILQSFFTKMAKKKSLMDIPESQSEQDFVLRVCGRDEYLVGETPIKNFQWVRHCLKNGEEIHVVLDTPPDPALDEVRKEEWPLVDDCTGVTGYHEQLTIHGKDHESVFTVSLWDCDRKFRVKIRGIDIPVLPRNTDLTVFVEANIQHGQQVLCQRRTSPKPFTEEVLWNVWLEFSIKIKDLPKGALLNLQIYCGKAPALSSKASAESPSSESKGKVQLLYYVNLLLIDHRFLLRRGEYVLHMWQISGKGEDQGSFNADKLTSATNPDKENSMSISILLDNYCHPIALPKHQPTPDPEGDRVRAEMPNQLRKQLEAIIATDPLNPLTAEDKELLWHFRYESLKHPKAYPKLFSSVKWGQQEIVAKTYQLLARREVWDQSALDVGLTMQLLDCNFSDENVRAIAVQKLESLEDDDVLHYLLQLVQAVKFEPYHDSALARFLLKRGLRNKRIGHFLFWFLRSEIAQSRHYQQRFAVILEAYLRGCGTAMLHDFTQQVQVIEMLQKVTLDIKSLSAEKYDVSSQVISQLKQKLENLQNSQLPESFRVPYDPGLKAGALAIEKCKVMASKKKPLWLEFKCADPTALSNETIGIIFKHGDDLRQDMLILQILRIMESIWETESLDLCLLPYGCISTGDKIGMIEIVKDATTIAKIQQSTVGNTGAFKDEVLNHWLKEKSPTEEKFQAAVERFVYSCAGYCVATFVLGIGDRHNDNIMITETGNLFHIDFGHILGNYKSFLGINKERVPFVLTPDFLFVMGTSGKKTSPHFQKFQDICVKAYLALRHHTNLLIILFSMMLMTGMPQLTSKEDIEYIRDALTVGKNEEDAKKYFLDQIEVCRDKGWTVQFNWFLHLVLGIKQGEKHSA
Sequence of JNK2 (P45984 whole entry): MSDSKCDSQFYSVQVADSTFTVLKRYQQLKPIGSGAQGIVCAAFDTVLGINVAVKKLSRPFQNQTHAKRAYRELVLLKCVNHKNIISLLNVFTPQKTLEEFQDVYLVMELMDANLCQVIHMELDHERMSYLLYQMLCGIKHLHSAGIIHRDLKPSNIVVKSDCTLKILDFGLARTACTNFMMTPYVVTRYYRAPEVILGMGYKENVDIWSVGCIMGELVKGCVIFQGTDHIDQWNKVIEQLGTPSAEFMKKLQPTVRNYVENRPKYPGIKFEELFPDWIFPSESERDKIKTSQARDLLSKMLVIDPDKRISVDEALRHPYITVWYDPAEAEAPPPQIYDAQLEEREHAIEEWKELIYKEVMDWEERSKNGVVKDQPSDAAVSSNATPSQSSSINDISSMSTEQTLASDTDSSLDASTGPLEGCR

C=C1CCCCCCCCCC(CO)C1=O (stereo not drawn) [EP009, 2-(Hydroxymethyl)-12-methylenecyclododecanone]
Kinase Activity (% of Control) (PIK3CG): 75 % of Control | Kinase Activity (% of Control) (VEGFR2): 100 % of Control | Kinase Activity (% of Control) (ERK1): 100 % of Control | Kinase Activity (% of Control) (ERBB2): 100 % of Control | Kinase Activity (% of Control) (JNK2): 100 % of Control | Kinase Activity (% of Control) (JNK1): 99 % of Control | Kinase Activity (% of Control) (IKK-alpha): 87 % of Control | IC50 (JAK3): 10 to 20 µM | Kinase Activity (% of Control) (CSF1R): 94 % of Control
